In experiment [1] the target is T1, NDM-1 (Klebsiella pneumoniae, UniProt C7C422). The experiment in a line: biochemical. The settings on record: cleavage of imipenem (100 uM) by NDM-1; read-out: Ki, Imipenem.
The target in experiment [2] is T2, VIM-1 (Pseudomonas aeruginosa, UniProt A0A0F7KYQ8).
T2 construct: made in house; host or cells: ECM6711 strain carrying pUCP24-VIM-1 plasmid; culture supernatant used unpurified
The experiment in a line: biochemical. The settings on record: cleavage of nitrocefin (200 uM) by VIM-1 supernatant.

Experiment [3] has as its target T1, NDM-1. The experiment in a line: Inhibition of purified class B carbapenemase NDM-1 (Ki, imipenem substrate). It counts as biochemical. The settings on record: NDM-1, substrate imipenem; read-out: Ki NDM-1, Imipenem.
Experiment [4] has as its target purified class A, C and D enzymes (Enterobacter cloacae, UniProt P05364). Format: biochemical. The settings on record: purified P99/AmpC of ECL; nitrocefin reporter substrate.
Experiment [5] concerns the target purified class A, C and D enzymes (Escherichia coli, UniProt Q9L5C7). It counts as biochemical. The note with it: purified CTX-M-14; nitrocefin reporter substrate.
The target in experiment [6] is T3, purified class A, C and D enzymes (UniProt P0AD64, L31Q/G234S/E235K, species not given).
T3 construct: Ki (SHV-12, NCF); other: purified SHV-12; nitrocefin reporter substrate
T3 sequence (P0AD64 1-286 L31Q/G234S/E235K): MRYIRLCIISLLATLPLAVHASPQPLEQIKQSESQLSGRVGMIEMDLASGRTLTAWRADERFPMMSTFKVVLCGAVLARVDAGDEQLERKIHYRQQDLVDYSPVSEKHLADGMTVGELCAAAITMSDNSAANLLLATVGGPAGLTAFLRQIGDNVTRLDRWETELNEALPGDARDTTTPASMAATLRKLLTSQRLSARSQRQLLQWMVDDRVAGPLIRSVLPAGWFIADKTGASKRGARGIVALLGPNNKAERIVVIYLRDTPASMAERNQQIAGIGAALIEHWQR
Format: biochemical. The settings on record: read-out: Ki (SHV-12, NCF); purified SHV-12; nitrocefin reporter substrate.

The target in experiment [7] is T4, purified class A, C and D enzymes (UniProt Q6XEC0).
T4 construct: rows headed: Ki (OXA-48, NCF); other: purified OXA-48; nitrocefin reporter substrate
It counts as biochemical. The settings on record: read-out: Ki (OXA-48, NCF); purified OXA-48; nitrocefin reporter substrate.

Experiment [8] has as its target T5, purified class A, C and D enzymes (UniProt Q9F663).
T5 construct: rows headed: Ki (KPC-2, NCF); other: purified KPC-2; nitrocefin reporter substrate
Format: biochemical. The note with it: read-out: Ki (KPC-2, NCF); purified KPC-2; nitrocefin reporter substrate.

Sequence of purified class A, C and D enzymes (Escherichia coli, UniProt Q9L5C7) (Q9L5C7 entry or part of it): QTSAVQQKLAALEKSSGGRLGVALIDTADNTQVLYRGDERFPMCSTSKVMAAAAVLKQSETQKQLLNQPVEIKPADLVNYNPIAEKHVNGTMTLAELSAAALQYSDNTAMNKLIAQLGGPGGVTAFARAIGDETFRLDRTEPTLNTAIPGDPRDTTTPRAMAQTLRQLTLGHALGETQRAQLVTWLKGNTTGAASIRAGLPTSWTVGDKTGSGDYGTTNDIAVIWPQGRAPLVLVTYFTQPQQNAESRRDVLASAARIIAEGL
Sequence of purified class A, C and D enzymes (Enterobacter cloacae, UniProt P05364) (P05364 21-381): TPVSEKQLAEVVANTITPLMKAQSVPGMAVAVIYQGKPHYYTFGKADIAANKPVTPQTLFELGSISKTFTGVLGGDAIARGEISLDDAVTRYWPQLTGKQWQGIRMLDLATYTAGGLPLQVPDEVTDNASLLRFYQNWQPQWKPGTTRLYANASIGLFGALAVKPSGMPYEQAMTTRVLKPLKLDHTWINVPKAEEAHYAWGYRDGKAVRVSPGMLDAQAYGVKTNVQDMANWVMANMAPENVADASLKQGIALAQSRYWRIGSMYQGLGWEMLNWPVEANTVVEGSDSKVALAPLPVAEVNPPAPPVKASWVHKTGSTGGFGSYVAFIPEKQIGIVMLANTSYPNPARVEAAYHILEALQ
T1 sequence (C7C422 29-270, looked up, species assumed): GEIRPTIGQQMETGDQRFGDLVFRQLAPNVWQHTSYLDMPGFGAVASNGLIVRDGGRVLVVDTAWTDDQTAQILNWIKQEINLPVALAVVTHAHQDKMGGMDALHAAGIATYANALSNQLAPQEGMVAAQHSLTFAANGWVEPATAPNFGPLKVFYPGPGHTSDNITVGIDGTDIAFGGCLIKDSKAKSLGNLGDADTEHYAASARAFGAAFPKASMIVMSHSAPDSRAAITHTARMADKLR

Usually Ki stands for a measure of affinity in units of concentration, obtained from inhibition or displacement. A word on the IC50: it is the point on the concentration scale where inhibition reaches its midpoint. A low value points to inhibition by little substance. Regarding `Nc1nnc(S[C@H]2Cc3ccc(OCC(=O)NC4CNC4)c(C(=O)O)c3OB2O)s1` [Compound 81, (3R)-3-[(5-amino-1,3,4-thiadiazol-2-yl)sulfanyl]-7-[2-(azetidin-3-ylamino)-2-oxo-ethoxy]-2-hydroxy-3,4-dihydro-1,2-benzoxaborinine-8-carboxylic acid], the Ki in experiment [1] is over 100 nM; in experiment [3], over 100 nM; in experiment [6] it was under 100 nM; in experiment [7], under 100 nM; in experiment [8] it was over 1000 nM. The IC50 in experiment [2] was at least 1000 nM. The “Ki (P99/AmpC of ECL, NCF)” value in experiment [4] is on record as “Y (0.1 μM to 1 μM)”. In experiment [5], the “Ki (CTX-M-14, NCF)” value is given as “X (Less than 0.1 μM)”.
`COc1ccc2c(c1C(=O)O)OB(O)[C@@H](Sc1nc(N)ns1)C2` [Compound 74, (3R)-3-[(3-amino-1,2,4-thiadiazol-5-yl)sulfanyl]-2-hydroxy-7-methoxy-3,4-dihydro-1,2-benzoxaborinine-8-carboxylic acid]: the Ki is over 100 nM in experiment [1]; over 100 nM in experiment [3]; under 100 nM in experiment [6]; under 100 nM in experiment [7]; under 100 nM in experiment [8]. For the same molecule, in experiment [2], the IC50 was under 1000 nM. Also, in experiment [4], the “Ki (P99/AmpC of ECL, NCF)” value is “Y (0.1 μM to 1 μM)”. In addition, the “Ki (CTX-M-14, NCF)” value in experiment [5] is listed as “X (Less than 0.1 μM)”.
For the molecule `Nc1nnc(S[C@H]2Cc3ccc(OCC(F)F)c(C(=O)O)c3OB2O)s1` [Compound 90, (3R)-3-[(5-amino-1,3,4-thiadiazol-2-yl)sulfanyl]-7-(2,2-difluoroethoxy)-2-hydroxy-3,4-dihydro-1,2-benzoxaborinine-8-carboxylic acid], the Ki is 10 to 100 nM in experiment [1]; 10 to 100 nM in experiment [3]; under 100 nM in experiment [6]; under 100 nM in experiment [7]; under 100 nM in experiment [8]. In experiment [2], this molecule had an IC50 of under 1000 nM. Also, the “Ki (P99/AmpC of ECL, NCF)” value in experiment [4] was “Z (Greater than 1 μM)”. The “Ki (CTX-M-14, NCF)” value in experiment [5] is on record as “X (Less than 0.1 μM)”.
As to `O=C(O)c1cccc2c1OB(O)[C@@H](Sc1nnc(NC3CNC3)s1)C2` [Compound 99, (3R)-3-[[5-(azetidin-3-ylamino)-1,3,4-thiadiazol-2-yl]sulfanyl]-2-hydroxy-3,4-dihydro-1,2-benzoxaborinine-8-carboxylic acid], the Ki in experiment [1] was under 10 nM; in experiment [3], under 10 nM; in experiment [6], under 100 nM; in experiment [7] it was under 100 nM; in experiment [8] it was 100 to 1000 nM. Further, the IC50 in experiment [2] was under 1000 nM. For the same molecule, the “Ki (P99/AmpC of ECL, NCF)” value in experiment [4] is “X (Less than 0.1 μM)”. The “Ki (CTX-M-14, NCF)” value in experiment [5] is given as “X (Less than 0.1 μM)”.
On to `COc1ccc2c(c1C(=O)O)OB(O)[C@@H](Sc1nnc(SCCCN)s1)C2` [Compound 113, (3R)-3-[[5-(3-aminopropylsulfanyl)-1,3,4-thiadiazol-2-yl]sulfanyl]-2-hydroxy-7-methoxy-3,4-dihydro-1,2-benzoxaborinine-8-carboxylic acid], for which the Ki is under 10 nM in experiment [1]; under 10 nM in experiment [3]; under 100 nM in experiment [6]; under 100 nM in experiment [7]; under 100 nM in experiment [8]. In experiment [2], this molecule had an IC50 of under 1000 nM. Further, the “Ki (P99/AmpC of ECL, NCF)” value in experiment [4] is listed as “X (Less than 0.1 μM)”. Further, the “Ki (CTX-M-14, NCF)” value in experiment [5] was “X (Less than 0.1 μM)”.
Take `COc1ccc2c(c1C(=O)O)OB(O)[C@@H](Sc1cnns1)C2` [Compound 60, (3R)-2-hydroxy-7-methoxy-3-(thiadiazol-5-ylsulfanyl)-3,4-dihydro-1,2-benzoxaborinine-8-carboxylic acid]: the Ki in experiment [1] was over 100 nM; in experiment [3], over 100 nM; in experiment [6], under 100 nM; in experiment [7], under 100 nM; in experiment [8], under 100 nM. The IC50 in experiment [2] was under 1000 nM. Further, the “Ki (P99/AmpC of ECL, NCF)” value in experiment [4] was “Z (Greater than 1 μM)”. Also, in experiment [5], the “Ki (CTX-M-14, NCF)” value is recorded as “X (Less than 0.1 μM)”.
`Nc1nnc(S[C@H]2Cc3ccc(-n4ccnn4)c(C(=O)O)c3OB2O)s1` [Compound 119, (3R)-3-[(5-amino-1,3,4-thiadiazol-2-yl)sulfanyl]-2-hydroxy-7-(triazol-1-yl)-3,4-dihydro-1,2-benzoxaborinine-8-carboxylic acid]: the Ki in experiment [1] is under 10 nM; in experiment [3] it was under 10 nM; in experiment [6], 100 to 1000 nM; in experiment [7] it was under 100 nM; in experiment [8] it was over 1000 nM. The molecule also registered an IC50 in experiment [2] of under 1000 nM. Further, in experiment [4], the “Ki (P99/AmpC of ECL, NCF)” value is on record as “Y (0.1 μM to 1 μM)”. Also, in experiment [5], the “Ki (CTX-M-14, NCF)” value is “X (Less than 0.1 μM)”.
For the molecule `NC(=O)c1csc(S[C@H]2Cc3ccc(F)c(C(=O)O)c3OB2O)n1` [Compound 54, (3R)-3-(4-carbamoylthiazol-2-yl)sulfanyl-7-fluoro-2-hydroxy-3,4-dihydro-1,2-benzoxaborinine-8-carboxylic acid], the Ki in experiment [1] was over 100 nM; in experiment [3] it was over 100 nM; in experiment [6], under 100 nM; in experiment [7] it was under 100 nM; in experiment [8], under 100 nM. The IC50 in experiment [2] was under 1000 nM. The “Ki (P99/AmpC of ECL, NCF)” value in experiment [4] is given as “Y (0.1 μM to 1 μM)”. In addition, the “Ki (CTX-M-14, NCF)” value in experiment [5] is “X (Less than 0.1 μM)”.
As for `CCOc1ccc2c(c1C(=O)O)OB(O)[C@@H](Sc1nnc(N)s1)C2` [Compound 83, (3R)-3-[(5-amino-1,3,4-thiadiazol-2-yl)sulfanyl]-7-ethoxy-2-hydroxy-3,4-dihydro-1,2-benzoxaborinine-8-carboxylic acid], the Ki in experiment [1] was under 10 nM; in experiment [3], under 10 nM; in experiment [6], under 100 nM; in experiment [7] it was under 100 nM; in experiment [8], 100 to 1000 nM. In experiment [2], the IC50 is under 1000 nM. Moreover, the “Ki (P99/AmpC of ECL, NCF)” value in experiment [4] was “Y (0.1 μM to 1 μM)”. Besides, the “Ki (CTX-M-14, NCF)” value in experiment [5] was “X (Less than 0.1 μM)”.
With `CC(C)COc1ccc2c(c1C(=O)O)OB(O)[C@@H](Sc1nncs1)C2` [Compound 88, (3R)-2-hydroxy-7-isobutoxy-3-(1,3,4-thiadiazol-2-ylsulfanyl)-3,4-dihydro-1,2-benzoxaborinine-8-carboxylic acid], the Ki in experiment [1] was 10 to 100 nM; in experiment [3], 10 to 100 nM; in experiment [6], under 100 nM; in experiment [7] it was under 100 nM; in experiment [8], 100 to 1000 nM. This molecule showed an IC50 in experiment [2] of under 1000 nM. For the same molecule, the “Ki (P99/AmpC of ECL, NCF)” value in experiment [4] is reported as “Y (0.1 μM to 1 μM)”. For the same molecule, the “Ki (CTX-M-14, NCF)” value in experiment [5] is recorded as “X (Less than 0.1 μM)”.
Take `COc1ccc2c(c1C(=O)O)OB(O)[C@@H](Sc1nnc(N(CCN)CCN)s1)C2` [Compound 101, (3R)-3-[[5-[bis(2-aminoethyl)amino]-1,3,4-thiadiazol-2-yl]sulfanyl]-2-hydroxy-7-methoxy-3,4-dihydro-1,2-benzoxaborinine-8-carboxylic acid]: the inhibitory constant (Ki) was under 10 nM in experiment [1]; under 10 nM in experiment [3]; under 100 nM in experiment [6]; under 100 nM in experiment [7]; 100 to 1000 nM in experiment [8]. In experiment [2], the IC50 is under 1000 nM. In experiment [4], the “Ki (P99/AmpC of ECL, NCF)” value is “Z (Greater than 1 μM)”. In addition, the “Ki (CTX-M-14, NCF)” value in experiment [5] is “X (Less than 0.1 μM)”.
As to `COc1c(Cl)cc2c(c1C(=O)O)OB(O)[C@@H](Sc1nnc(N)s1)C2` [Compound 42, (R)-3-(5-amino-1,3,4-thiadiazol-2-ylthio)-6-chloro-2-hydroxy-7-methoxy-3,4-dihydro-2H-benzo[e][1,2]oxaborinine-8-carboxylic acid], the inhibitory constant (Ki) in experiment [1] is under 10 nM; in experiment [3], under 10 nM; in experiment [6], under 100 nM; in experiment [7], under 100 nM; in experiment [8] it was 100 to 1000 nM. The same molecule registered an IC50 in experiment [2] of under 1000 nM. Moreover, the “Ki (P99/AmpC of ECL, NCF)” value in experiment [4] is recorded as “Y (0.1 μM to 1 μM)”. Also, the “Ki (CTX-M-14, NCF)” value in experiment [5] was “X (Less than 0.1 μM)”.
For the molecule `COc1ccc2c(c1C(=O)O)OB(O)[C@@H](Sc1nncn1CCCCN)C2` [Compound 73, (3R)-3-[[4-(4-aminobutyl)-1,2,4-triazol-3-yl]sulfanyl]-2-hydroxy-7-methoxy-3,4-dihydro-1,2-benzoxaborinine-8-carboxylic acid], the Ki is 10 to 100 nM in experiment [1]; 10 to 100 nM in experiment [3]; under 100 nM in experiment [6]; under 100 nM in experiment [7]; 100 to 1000 nM in experiment [8]. Besides, in experiment [2], the IC50 was under 1000 nM. In experiment [4], the “Ki (P99/AmpC of ECL, NCF)” value is given as “Z (Greater than 1 μM)”. For the same molecule, the “Ki (CTX-M-14, NCF)” value in experiment [5] is listed as “X (Less than 0.1 μM)”.
